According to patent publication US10017535B2, “Amphiphilic compounds with neuroprotective properties” (USTAV ORGANICKE CHEMIE A BIOCHEMIE AV CR, v.v.i., priority 2014, dated 2018):

Assays:
[1] = target: T1, NR1-1a/NR2B NMDA receptor (Rattus norvegicus, UniProt P35439+Q00960); experiment: Patch-clamp inhibition of glutamate-evoked currents at recombinant NMDA receptors in transfected HEK293 cells; type: cell-based; conditions: for IC50: calculated from relative steroid-induced inhibition, Hill's coefficient 1.2, read-out: IC50
T1 construct: expressed in transfected cells; host or cells: HEK293 cells (ATCC CRL1573)
Summary of the method: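 HEK293 cells co-transfected with rat NR1-1a/NR2B plus GFP were whole-cell patch-clamped 16-40 h post-transfection at −60 mV. Currents were evoked by 1 mmol·l^−1 glutamate with 10 μmol·l^−1 glycine in ECS pH 7.3, and steroid was co-applied in DMSO via fast perfusion. IC50 came from relative inhibition.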

[2] = system: laboratory mice, strain CD-1; experiment: Elevated plus maze (anxiety); type: in vivo; conditions: vs saline and CDX controls
Procedure: In the Experimental Part 1 were used adults (30-35 g) male laboratory mice, strain CD-1 from Velaz facility, Czech Republic. Mice were housed in plastic boxes with a 12-hour light cycle (lights on at 7:00 pm). Mice had free access to food and water.
Amphiphilic steroid compounds were dissolved in a solution of 3 g (2-hydroxypropyl)-β-cyclodextrin (CDX, Sigma-Aldrich) and 157 mg of citric acid ([…], Sigma-Aldrich) in 30 ml of distilled water, the pH was adjusted to 7.4 using sodium hydroxide (NaOH, Sigma-Aldrich). Thus there were prepared solutions of the four steroids for application rates of 0.1, 1, 10 and 100 mg/kg.
The elevated plus maze (EPM) experiment was used to determine the effect of compounds on anxiety of animals at a dose of 1 mg/kg. Two control groups of animals were used to which was applied physiological saline and CDX solution, respectively. A noncompetitive NMDA receptor antagonist—ketamine (10 mg/kg) was given to a comparative group. The compounds were administered to mice intraperitoneally 30 minutes before testing in the EPM.

[3] = 1 mg/kg i.p., 30 minutes before testing

T1 sequence (Q00960 27-1482, other chains not shown): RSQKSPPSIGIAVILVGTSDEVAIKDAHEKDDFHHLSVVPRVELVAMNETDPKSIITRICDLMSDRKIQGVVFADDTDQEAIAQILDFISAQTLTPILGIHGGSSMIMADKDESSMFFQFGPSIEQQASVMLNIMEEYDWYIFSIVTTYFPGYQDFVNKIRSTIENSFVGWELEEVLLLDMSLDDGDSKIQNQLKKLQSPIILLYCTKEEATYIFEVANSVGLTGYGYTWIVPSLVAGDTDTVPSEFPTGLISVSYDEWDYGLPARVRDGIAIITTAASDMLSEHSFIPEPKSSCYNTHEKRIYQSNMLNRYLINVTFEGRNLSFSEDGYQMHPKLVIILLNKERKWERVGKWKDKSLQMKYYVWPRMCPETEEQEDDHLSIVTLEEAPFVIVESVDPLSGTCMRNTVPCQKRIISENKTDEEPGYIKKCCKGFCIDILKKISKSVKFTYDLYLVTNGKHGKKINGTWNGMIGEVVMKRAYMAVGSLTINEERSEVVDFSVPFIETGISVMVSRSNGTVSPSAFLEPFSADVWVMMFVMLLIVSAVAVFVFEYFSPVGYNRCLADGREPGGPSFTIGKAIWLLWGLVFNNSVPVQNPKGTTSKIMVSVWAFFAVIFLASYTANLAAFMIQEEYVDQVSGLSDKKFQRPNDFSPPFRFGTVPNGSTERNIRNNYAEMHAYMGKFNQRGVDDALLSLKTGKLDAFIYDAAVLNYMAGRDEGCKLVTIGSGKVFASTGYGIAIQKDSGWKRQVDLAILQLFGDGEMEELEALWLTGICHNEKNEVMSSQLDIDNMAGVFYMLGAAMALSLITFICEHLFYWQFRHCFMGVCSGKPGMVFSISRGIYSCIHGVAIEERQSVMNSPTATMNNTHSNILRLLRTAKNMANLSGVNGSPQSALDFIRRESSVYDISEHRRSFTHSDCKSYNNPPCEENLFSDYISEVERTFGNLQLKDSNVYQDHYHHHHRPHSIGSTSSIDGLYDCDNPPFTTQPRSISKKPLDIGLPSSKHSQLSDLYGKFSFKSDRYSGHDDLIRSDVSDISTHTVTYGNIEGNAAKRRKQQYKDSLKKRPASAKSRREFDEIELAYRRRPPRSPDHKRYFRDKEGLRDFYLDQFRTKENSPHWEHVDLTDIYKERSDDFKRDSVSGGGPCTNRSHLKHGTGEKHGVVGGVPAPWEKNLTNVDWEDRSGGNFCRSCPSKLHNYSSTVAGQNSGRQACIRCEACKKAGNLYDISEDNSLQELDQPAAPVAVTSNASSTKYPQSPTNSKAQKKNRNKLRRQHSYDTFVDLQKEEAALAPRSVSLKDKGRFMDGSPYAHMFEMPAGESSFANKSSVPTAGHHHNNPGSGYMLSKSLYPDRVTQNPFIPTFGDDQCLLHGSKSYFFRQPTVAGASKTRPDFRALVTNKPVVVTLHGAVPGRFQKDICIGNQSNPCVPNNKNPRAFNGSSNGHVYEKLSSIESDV

| Compound | inhibition at 1 µM ([1]; HEK293, read-out: Mean % change ± SD) | IC50 [1] | number of entries into the open arms [2, 3] | total time spent in the open arms [2, 3] | number of entries into the open arms ([2]; 10 mg/kg) | total time spent in the open arms ([2]; 10 mg/kg) | Mean % change ± SD ([1]; steroid concentration 100 μmol·l^−1, 1 mmol·l^−1 glutamate, −60 mV) | inhibition at 10 µM ([1]; HEK293, steroid concentration 10 μmol·l^−1, 1 mmol·l^−1 glutamate, −60 mV, read-out: Mean % change ± SD) |
| --- | --- | --- | --- | --- | --- | --- | --- | --- |
| C[C@@]12CCC[C@H]1[C@@H]1CC[C@@H]3C[C@H](OC(=O)[C@@H](N)CCC(=O)O)CC[C@]3(C)[C@H]1CC2 [Compound 130, (4S)-4-Amino-5-(((3R,5R,8S,9S,10S,13S,14S)-10,13-dimethylhexadecahydro-1H-cyclopenta[a]phenanthren-3-yl)oxy)-5-oxopentanoic acid] | 36.7 ± 7% | 1.6 µM | significantly increased | significantly increased | not significantly altered | significant increase | – | – |
| Pyridinium (3S,3aS,5bR,7aR,9R,11aS,11bS,13aR)-3,11a-dimethylhexadecahydro-1H,3H-naphtho[2′,1′:4,5]indeno[1,7a-c]furan-9-yl 9-sulfate [Compound 124] | – | 51 µM | – | – | – | – | 69.1 ± 4.0% | – |
| C[C@@]12CCCCC1[C@@H]1CC[C@@H]3C[C@H](OC(=O)[C@@H](N)CCC(=O)O)CC[C@]3(C)[C@H]1CC2 (stereo partly drawn) [Compound 106, (4S)-4-Amino-5-(((2R,4aS,4bS,6aS,10bS,12aR)-4a,6a-dimethyloctadekahydrochrysen-2-yl)oxy)-5-oxopentanoic acid] | – | 10.6 µM | – | – | – | – | – | 48.7 ± 6.3% |
